In ChEMBL document CHEMBL4390652, “Design, biological evaluation and X-ray crystallography of nanomolar multifunctional ligands targeting simultaneously acetylcholinesterase and glycogen synthase kinase-3” (Eur J Med Chem, 2019):

Key:
[1] = test system: Tyrosine-protein kinase ABL1 (Homo sapiens), P00519 [F317I]; test: Binding affinity to human phosphorylated ABL1 F317I mutant (S229 to K512 residues) expressed in mammalian expression system assessed as residual binding level at 10 uM by Kinomescan method relative to control
[2] = target: Tyrosine-protein kinase ABL2 (Homo sapiens) (UniProt P42684); test: Binding affinity to wild-type human ABL2 (A248 to G542 residues) expressed in bacterial expression system assessed as residual binding level at 10 uM by Kinomescan method relative to control
[3] = target: Activin receptor type-1B (Homo sapiens) (UniProt P36896); test: Binding affinity to wild-type human ACVR1B (S187 to I505 residues) expressed in bacterial expression system assessed as residual binding level at 10 uM by Kinomescan method relative to control
[4] = target: NUAK family SNF1-like kinase 1 (Homo sapiens) (UniProt O60285); test: Binding affinity to wild-type human partial length ARK5 (E25 to I332 residues) expressed in bacterial expression system assessed as residual binding level at 10 uM by Kinomescan method relative to control
[5] = target: Mitotic checkpoint serine/threonine-protein kinase BUB1 (Homo sapiens) (UniProt O43683); test: Binding affinity to wild-type human partial length BUB1 (Q724 to K1085 residues) expressed in mammalian expression system assessed as residual binding level at 10 uM by Kinomescan method relative to control
[6] = target: Citron Rho-interacting kinase (Homo sapiens) (UniProt O14578); test: Binding affinity to wild-type human partial length CIT (M68 to E432 residues) expressed in bacterial expression system assessed as residual binding level at 10 uM by Kinomescan method relative to control
[7] = target: Casein kinase I isoform gamma-1 (Homo sapiens) (UniProt Q9HCP0); test: Binding affinity to wild-type human partial length CSNK1G1 (T15 to S353 residues) expressed in bacterial expression system assessed as residual binding level at 10 uM by Kinomescan method relative to control
[8] = target: Ephrin type-A receptor 8 (Homo sapiens) (UniProt P29322); test: Binding affinity to wild-type human partial length EPHA8 (Q608 to C920 residues) expressed in bacterial expression system assessed as residual binding level at 10 uM by Kinomescan method relative to control
[9] = target: Mitogen-activated protein kinase 3 (Homo sapiens) (UniProt P27361); test: Binding affinity to wild-type human full length ERK1 (M1 to P379 residues) expressed in bacterial expression system assessed as residual binding level at 10 uM by Kinomescan method relative to control
[10] = target: Homeodomain-interacting protein kinase 3 (Homo sapiens) (UniProt Q9H422); test: Binding affinity to wild-type human partial length HIPK3 (M153 to N562 residues) expressed in mammalian expression system assessed as residual binding level at 10 uM by Kinomescan method relative to control
[11] = target: Mitogen-activated protein kinase 8 (Homo sapiens) (UniProt P45983); test: Binding affinity to wild-type human full length JNK1 (M1 to Q384 residues) expressed in mammalian expression system assessed as residual binding level at 10 uM by Kinomescan method relative to control
[12] = target: Tyrosine-protein kinase Lck (Homo sapiens) (UniProt P06239); test: Binding affinity to wild-type human partial length LCK (R207 to P509 residues) expressed in bacterial expression system assessed as residual binding level at 10 uM by Kinomescan method relative to control
[13] = target: Mitogen-activated protein kinase kinase kinase 10 (Homo sapiens) (UniProt Q02779); test: Binding affinity to wild-type human partial length MLK2 (V52 to W380 residues) expressed in bacterial expression system assessed as residual binding level at 10 uM by Kinomescan method relative to control
[14] = target: Myosin light chain kinase 2, skeletal/cardiac muscle (Homo sapiens) (UniProt Q9H1R3); test: Binding affinity to wild-type human partial length MYLK2 (D258 to K570 residues) expressed in bacterial expression system assessed as residual binding level at 10 uM by Kinomescan method relative to control
[15] = target: Cyclin-dependent kinase 16 (Homo sapiens) (UniProt Q00536); test: Binding affinity to wild-type human partial length PCTK1 (G160 to A474 residues) expressed in mammalian expression system assessed as residual binding level at 10 uM by Kinomescan method relative to control
[16] = target: Phosphatidylinositol 5-phosphate 4-kinase type-2 beta (Homo sapiens) (UniProt P78356); test: Binding affinity to wild-type human full length PIP5K2B (M1 to T416 residues) expressed in bacterial expression system assessed as residual binding level at 10 uM by Kinomescan method relative to control
[17] = target: Serine/threonine-protein kinase RIO3 (Homo sapiens) (UniProt O14730); test: Binding affinity to wild-type human full length RIOK3 (M1 to E519 residues) expressed in bacterial expression system assessed as residual binding level at 10 uM by Kinomescan method relative to control
[18] = target: Receptor-interacting serine/threonine-protein kinase 1 (Homo sapiens) (UniProt Q13546); test: Binding affinity to wild-type human partial length RIPK1 (M1 to K305 residues) expressed in bacterial expression system assessed as residual binding level at 10 uM by Kinomescan method relative to control
[19] = target: Receptor-interacting serine/threonine-protein kinase 2 (Homo sapiens) (UniProt O43353); test: Binding affinity to wild-type human partial length RIPK2 (M1 to K310 residues) expressed in bacterial expression system assessed as residual binding level at 10 uM by Kinomescan method relative to control
[20] = target: Serine/threonine-protein kinase TAO3 (Homo sapiens) (UniProt Q9H2K8); test: Binding affinity to wild-type human partial length TAOK3 (M1 to T316 residues) expressed in mammalian expression system assessed as residual binding level at 10 uM by Kinomescan method relative to control
[21] = target: Serine/threonine-protein kinase TNNI3K (Homo sapiens) (UniProt Q59H18); test: Binding affinity to wild-type human full length TNNI3K (M1 to S835 residues) expressed in bacterial expression system assessed as residual binding level at 10 uM by Kinomescan method relative to control
[22] = target: Dual specificity protein kinase TTK (Homo sapiens) (UniProt P33981); test: Binding affinity to wild-type human partial length TTK (N505 to V798 residues) expressed in bacterial expression system assessed as residual binding level at 10 uM by Kinomescan method relative to control
[23] = target: Serine/threonine-protein kinase WNK3 (Homo sapiens) (UniProt Q9BYP7); test: Binding affinity to wild-type human partial length WNK3 (M1 to D434 residues) expressed in mammalian expression system assessed as residual binding level at 10 uM by Kinomescan method relative to control
[24] = target: Serine/threonine-protein kinase 32B (Homo sapiens) (UniProt Q9NY57); test: Binding affinity to wild-type human full length YANK2 (M1 to S414 residues) expressed in bacterial expression system assessed as residual binding level at 10 uM by Kinomescan method relative to control
[25] = test system: MDR1; test: in vitro; conditions: dog, MDCK-MDR1
Description: Apparent permeability across basolateral to apical side in MDCK2-MDR1 cells by HPLC analysis

NUAK family SNF1-like kinase 1 (Homo sapiens), sequence (O60285 whole entry, the tested form may be a part): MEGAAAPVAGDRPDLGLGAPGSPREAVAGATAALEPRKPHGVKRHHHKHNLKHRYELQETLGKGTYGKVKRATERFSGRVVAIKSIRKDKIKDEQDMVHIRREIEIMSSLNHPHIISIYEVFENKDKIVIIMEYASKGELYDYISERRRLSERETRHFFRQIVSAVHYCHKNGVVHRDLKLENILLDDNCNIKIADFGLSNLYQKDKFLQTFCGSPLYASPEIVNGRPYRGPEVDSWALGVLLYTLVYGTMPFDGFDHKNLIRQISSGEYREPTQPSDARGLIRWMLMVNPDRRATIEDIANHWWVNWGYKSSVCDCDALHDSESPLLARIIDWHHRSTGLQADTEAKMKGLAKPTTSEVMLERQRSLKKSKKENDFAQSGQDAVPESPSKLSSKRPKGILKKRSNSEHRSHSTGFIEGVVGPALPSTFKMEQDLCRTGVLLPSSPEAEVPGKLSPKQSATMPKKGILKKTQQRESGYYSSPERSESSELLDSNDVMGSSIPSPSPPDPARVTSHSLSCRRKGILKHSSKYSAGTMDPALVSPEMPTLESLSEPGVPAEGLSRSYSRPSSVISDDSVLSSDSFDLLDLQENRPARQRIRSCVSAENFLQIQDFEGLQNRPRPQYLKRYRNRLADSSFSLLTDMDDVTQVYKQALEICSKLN
Ephrin type-A receptor 8 (Homo sapiens), sequence (P29322 whole entry, the tested form may be a part): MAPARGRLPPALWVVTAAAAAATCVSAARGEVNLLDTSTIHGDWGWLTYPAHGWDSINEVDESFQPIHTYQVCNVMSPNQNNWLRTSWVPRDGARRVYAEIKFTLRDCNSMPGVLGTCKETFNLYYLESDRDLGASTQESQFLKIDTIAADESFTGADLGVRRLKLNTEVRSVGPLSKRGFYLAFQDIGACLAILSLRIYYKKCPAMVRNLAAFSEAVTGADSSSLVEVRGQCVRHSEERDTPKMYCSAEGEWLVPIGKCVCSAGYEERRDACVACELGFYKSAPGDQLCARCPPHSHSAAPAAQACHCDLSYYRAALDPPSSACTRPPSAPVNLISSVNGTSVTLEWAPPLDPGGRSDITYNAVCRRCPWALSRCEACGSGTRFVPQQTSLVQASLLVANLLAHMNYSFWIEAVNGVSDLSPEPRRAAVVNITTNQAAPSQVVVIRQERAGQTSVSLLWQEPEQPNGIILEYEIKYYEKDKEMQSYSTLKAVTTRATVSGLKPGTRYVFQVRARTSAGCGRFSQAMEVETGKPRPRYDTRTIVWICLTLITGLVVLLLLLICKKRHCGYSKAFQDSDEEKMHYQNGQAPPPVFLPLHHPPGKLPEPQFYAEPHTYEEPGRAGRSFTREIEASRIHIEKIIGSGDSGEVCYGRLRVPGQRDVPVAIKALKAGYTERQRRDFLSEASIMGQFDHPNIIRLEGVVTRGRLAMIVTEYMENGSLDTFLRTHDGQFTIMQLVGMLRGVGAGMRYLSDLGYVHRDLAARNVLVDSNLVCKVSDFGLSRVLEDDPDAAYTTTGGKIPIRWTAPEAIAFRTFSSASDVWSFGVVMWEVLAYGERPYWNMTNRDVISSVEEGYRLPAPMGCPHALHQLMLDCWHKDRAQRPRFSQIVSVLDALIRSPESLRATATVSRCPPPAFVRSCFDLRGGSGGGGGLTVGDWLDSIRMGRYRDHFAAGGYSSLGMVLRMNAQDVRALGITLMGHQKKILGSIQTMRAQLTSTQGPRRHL
Casein kinase I isoform gamma-1 (Homo sapiens), sequence (Q9HCP0 whole entry, looked up, the tested form may be a part, canonical isoform): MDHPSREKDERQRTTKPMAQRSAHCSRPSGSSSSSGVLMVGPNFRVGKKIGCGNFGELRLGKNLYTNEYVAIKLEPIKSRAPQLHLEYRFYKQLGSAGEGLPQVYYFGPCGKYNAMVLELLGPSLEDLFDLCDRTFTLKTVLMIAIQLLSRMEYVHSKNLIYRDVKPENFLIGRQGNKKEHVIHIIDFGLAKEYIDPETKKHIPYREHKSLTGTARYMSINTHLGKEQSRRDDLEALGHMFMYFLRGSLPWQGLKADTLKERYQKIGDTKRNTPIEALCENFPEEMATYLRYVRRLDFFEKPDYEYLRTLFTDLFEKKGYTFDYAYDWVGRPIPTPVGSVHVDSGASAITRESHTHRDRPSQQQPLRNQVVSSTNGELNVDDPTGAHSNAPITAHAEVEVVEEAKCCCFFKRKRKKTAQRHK
Tyrosine-protein kinase ABL1 (Homo sapiens), P00519 [F317I], sequence (P00519 whole entry F317I, the tested form may be a part): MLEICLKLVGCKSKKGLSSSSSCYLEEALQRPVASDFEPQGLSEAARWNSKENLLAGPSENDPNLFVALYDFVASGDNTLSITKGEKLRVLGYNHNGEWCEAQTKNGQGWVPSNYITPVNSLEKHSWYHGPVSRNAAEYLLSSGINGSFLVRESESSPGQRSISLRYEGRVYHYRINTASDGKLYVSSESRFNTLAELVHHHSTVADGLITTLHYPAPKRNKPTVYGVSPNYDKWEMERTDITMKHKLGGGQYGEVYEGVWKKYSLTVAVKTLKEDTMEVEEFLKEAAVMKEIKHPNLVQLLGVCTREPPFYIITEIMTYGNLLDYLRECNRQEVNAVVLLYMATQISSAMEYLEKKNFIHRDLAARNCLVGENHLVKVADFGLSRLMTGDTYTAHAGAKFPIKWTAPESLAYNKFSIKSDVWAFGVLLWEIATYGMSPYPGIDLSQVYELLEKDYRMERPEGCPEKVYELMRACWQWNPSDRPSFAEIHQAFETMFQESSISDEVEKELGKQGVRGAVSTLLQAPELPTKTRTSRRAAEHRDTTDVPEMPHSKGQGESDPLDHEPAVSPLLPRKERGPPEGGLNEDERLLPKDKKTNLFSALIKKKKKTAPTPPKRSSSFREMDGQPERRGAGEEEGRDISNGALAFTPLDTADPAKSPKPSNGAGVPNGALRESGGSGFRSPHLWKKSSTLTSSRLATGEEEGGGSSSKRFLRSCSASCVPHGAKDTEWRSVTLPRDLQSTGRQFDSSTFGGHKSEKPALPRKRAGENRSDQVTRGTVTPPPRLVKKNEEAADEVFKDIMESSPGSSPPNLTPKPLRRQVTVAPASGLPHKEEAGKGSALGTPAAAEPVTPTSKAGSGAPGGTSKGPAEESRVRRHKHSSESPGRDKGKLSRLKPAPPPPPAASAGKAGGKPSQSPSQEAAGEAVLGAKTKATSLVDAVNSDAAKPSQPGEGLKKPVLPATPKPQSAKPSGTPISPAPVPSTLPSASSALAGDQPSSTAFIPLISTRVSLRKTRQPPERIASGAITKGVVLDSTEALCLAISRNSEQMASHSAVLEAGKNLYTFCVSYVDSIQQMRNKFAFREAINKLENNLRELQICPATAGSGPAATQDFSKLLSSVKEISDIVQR
Serine/threonine-protein kinase WNK3 (Homo sapiens), sequence (Q9BYP7 whole entry, the tested form may be a part): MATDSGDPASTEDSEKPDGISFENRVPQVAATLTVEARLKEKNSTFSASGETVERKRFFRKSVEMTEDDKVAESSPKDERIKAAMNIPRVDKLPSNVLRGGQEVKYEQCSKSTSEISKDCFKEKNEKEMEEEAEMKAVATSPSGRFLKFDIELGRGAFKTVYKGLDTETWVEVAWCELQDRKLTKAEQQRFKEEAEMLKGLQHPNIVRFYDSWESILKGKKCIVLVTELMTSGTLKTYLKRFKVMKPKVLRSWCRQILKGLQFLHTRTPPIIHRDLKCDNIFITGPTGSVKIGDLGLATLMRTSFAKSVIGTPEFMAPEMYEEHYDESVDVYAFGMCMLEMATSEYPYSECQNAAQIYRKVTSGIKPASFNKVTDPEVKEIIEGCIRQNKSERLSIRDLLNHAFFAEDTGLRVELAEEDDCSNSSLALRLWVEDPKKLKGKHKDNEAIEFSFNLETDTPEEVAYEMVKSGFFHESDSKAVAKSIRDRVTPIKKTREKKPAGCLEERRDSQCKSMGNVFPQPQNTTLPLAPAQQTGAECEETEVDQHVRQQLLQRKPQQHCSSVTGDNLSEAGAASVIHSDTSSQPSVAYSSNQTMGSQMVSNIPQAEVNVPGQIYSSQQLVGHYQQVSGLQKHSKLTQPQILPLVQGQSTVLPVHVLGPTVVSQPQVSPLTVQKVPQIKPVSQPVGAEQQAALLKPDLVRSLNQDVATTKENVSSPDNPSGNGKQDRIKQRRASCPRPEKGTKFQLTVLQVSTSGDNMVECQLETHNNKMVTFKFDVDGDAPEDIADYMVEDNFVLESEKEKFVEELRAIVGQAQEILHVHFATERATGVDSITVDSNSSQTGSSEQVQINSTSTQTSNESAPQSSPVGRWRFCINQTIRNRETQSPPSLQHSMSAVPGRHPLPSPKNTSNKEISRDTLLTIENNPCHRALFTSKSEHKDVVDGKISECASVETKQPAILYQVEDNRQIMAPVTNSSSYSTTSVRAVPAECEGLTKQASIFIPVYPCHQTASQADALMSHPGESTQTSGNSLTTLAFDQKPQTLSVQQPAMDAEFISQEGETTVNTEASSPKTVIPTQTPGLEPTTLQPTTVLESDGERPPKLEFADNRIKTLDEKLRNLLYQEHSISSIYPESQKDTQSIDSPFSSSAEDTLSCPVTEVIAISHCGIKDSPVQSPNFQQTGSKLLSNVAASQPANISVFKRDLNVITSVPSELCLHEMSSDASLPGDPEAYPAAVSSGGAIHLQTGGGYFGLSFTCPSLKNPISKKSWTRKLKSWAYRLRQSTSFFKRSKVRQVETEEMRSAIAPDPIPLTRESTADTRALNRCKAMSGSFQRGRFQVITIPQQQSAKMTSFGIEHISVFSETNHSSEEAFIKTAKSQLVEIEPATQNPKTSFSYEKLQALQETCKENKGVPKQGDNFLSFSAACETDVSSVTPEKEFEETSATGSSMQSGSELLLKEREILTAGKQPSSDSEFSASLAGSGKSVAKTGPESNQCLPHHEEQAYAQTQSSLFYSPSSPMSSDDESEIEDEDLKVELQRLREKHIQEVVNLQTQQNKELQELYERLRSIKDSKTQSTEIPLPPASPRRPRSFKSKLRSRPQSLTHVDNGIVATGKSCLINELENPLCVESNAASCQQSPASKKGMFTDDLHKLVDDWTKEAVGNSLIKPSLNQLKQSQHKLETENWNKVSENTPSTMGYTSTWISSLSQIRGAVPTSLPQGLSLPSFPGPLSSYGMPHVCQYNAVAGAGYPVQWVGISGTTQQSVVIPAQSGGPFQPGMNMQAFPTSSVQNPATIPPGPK

O=C(Nc1cc(-c2cn(CCNc3c4c(nc5ccccc35)CCCC4)nn2)ccn1)Nc1cccc2c1C1CCCCN1C2=O (racemic)
Activity [1]: 47% | Activity [2]: 22% | Activity [3]: 67% | Activity [4]: 0.85% | Activity [5]: 6.4% | Activity [6]: 0.95% | Activity [7]: 63% | Activity [8]: 80% | Activity [9]: 57% | Activity [10]: 99% | Activity [11]: 0.55% | Activity [12]: 23% | Activity [13]: 58% | Activity [14]: 24% | Activity [15]: 4.3% | Activity [16]: 16% | Activity [17]: 11% | Activity [18]: 3.3% | Activity [19]: 66% | Activity [20]: 3.8% | Activity [21]: 100% | Activity [22]: 9.9% | Activity [23]: 100% | Activity [24]: 100% | Papp B→A [25]: 16.8 ×10⁻⁶ cm/s
